Data: US10363252B2, “Treatment of prostate cancer using hedgehog pathway inhibitors” (HEDGEPATH PHARMACEUTICALS, INC., priority 2013, dated 2019)

Assays:
[1] = plasma trough level of itraconazole required for clinical benefit in humans with cancer; assay type: in vivo, human
Method: In particular, the minimum plasma trough level after 4 weeks of therapy required to have a clinically significant effect was at least 1000 ng/ml. Achieving these levels of itraconazole is enhanced by the use of formulations with greater bioavailability such as SUBA-CAP™ formulation. […] These side effects associated with these high doses of itraconazole can be effectively managed by giving a selective mineralocorticoid antagonist, such as eplerenone. Accordingly, in some embodiments, the method further comprises administering eplerenone or other mineralocorticoid inhibitor.

[2] = test system: HhP; conditions: major metabolite of itraconazole; cited from earlier work

Molecule	side-effects peculiar to high doses ([1]; high doses of itraconazole)	concentration at 4 weeks ([1]; human, plasma, after 4 weeks of therapy, humans with cancer, read-out: minimum plasma trough level required to have a clinically significant effect)	potency as a HhP inhibitor relative to itraconazole [2]
CCC(C)n1ncn(-c2ccc(N3CCN(c4ccc(OCC5COC(Cn6cncn6)(c6ccc(Cl)cc6Cl)O5)cc4)CC3)cc2)c1=O (stereo not drawn) [itraconazole]	hypertension, peripheral edema, and hypokalemia	≥ 1000 ng/mL	
hydroxy-itraconazole			not equipotent
